Measured values published in US20170158599A1, “COMPOSITIONS AND METHODS COMPRISING SALICYLATES AND POLYSALICYLATES” (Biocogent, LLC, priority 2014, published 2017).

Tested on: peripheral blood mononuclear cells (PBMC)
Test: Lipid mediators of the resolution pathways in PBMC with PMA/A23187 stimulation
Type: cell-based
From the text: The next two sets of adjacent bars show a comparison of the effects of treatment with PMA plus A23187 in the presence of salicylic acid (on left of each group) and polysalicylic acid (on right of each group) in amounts of 1.6 micrograms per milliliter (μg/mL) and 8 micrograms per milliliter (μg/mL), respectively. […] The resultant SA derivative was evaluated at different doses on the synthesis of 8 intermediate lipids of the resolution pathways in PMBC with PMA/A23187 stimulation. PMBC cells were seeded and allowed to settle for 1 hour; the test compounds were then added and allowed to incubate for an additional hour. The inflammatory stimulus (PMA plus A23187) was added for one hour, and supernatants were collected and analyzed for lipid intermediates.

## O=C(O)c1ccccc1O [salicylic acid, 2-hydroxybenzoic acid]
PMA plus A23187, 1.6 and 8 μg/mL (FIG. 1)
  14-HDOHE levels/production: noticeable increase over the control
PMA plus A23187, 1.6 and 8 μg/mL (FIG. 2)
  12-HETE levels/production: noticeable increase over the control
